According to patent US8293721B2, “CETP inhibitors derived from benzoxazole arylamides” (Merck Sharpe & Dohme Corp., priority 2007, dated 2012):

What follows are compounds tested against T1, recombinant human CETP (Homo sapiens, UniProt P11597) (assay: In vitro continuous CETP assay, CE transfer reaction (BODIPY-CE donor particles, fluorescence)). Details: 25° C., 3% human serum, stated for the compounds 'or a stereoisomer of the compounds', read-out: IC50 value as measured for the CE transfer reaction.
T1 construct: made in house; host or cells: CHO cells
T1 sequence (P11597 18-493): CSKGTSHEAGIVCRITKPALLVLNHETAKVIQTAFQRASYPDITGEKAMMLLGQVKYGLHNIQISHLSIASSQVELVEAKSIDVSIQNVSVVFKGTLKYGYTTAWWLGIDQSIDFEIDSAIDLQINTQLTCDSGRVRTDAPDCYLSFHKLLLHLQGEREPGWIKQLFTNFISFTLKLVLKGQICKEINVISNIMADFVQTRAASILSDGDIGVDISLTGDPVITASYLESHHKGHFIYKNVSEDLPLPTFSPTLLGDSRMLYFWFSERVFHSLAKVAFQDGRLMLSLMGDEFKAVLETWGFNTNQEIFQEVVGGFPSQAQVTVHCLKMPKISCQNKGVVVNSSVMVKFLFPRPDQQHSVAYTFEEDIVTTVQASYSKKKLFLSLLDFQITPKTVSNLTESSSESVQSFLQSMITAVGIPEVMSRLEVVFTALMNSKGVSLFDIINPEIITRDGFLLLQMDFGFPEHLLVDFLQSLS
Assay type: biochemical
Protocol: An in vitro continuous assay for determining IC50's to identify compounds that are CETP inhibitors was performed based on a modification of the method described by Epps et al. employing BODIPY®-CE as the cholesteryl ester lipid donor and BODIPY®-TG as the triglyceride lipid donor. See Epps et al. (1995) Method for measuring the activities of cholesteryl ester transfer protein (lipid transfer protein), Chem. Phys. Lipids. 77, 51-63.
Particles used in the assay were created from the following materials by probe sonication essentially as described by Epps et al. Synthetic cholesteryl ester (CE) donor HDL particles contained DOPC (Dioleoyl Phosphatidyl Choline), BODIPY®-CE (Molecular Probes C-3927), triolein (a triglyceride), dabcyl dicetylamide, (a non-diffusable quencher molecule to reduce background fluorescence) and apoHDL. Synthetic triglyceride (TG) donor HDL particles contained DOPC, BODIPY®-TG, and apoHDL. BODIPY®-TG was synthesized at room temperature from diolein and the BODIPY containing fatty acid analog 4,4-difluoro-5-(2-thienyl)-4-bora-3a,4a-diaza-s-indacene-3-dodecanoic acid (Molecular Probes) in methylene chloride in the presence of dicyclohexyl carbodimide. Dabcyl dicetylamide was made by heating dabcyl n-succinimide with dicetylamine in DMF at 95° C. overnight in the presence of diisopropylamine catalyst. Native lipoproteins from human blood were used as acceptor particles. Particles having a density less than 1.063 g/ml were collected by ultracentrifugation. These particles include VLDL, IDL, and LDL. Particle concentrations were expressed in terms of protein concentration as determined by BCA assay (Pierce, USA). Particles were stored at 4° C. until use.
Assays were performed in Dynex Microfluor 2 U-bottom black 96-well plates (Cat #7205). An assay cocktail containing CETP, 1×CETP buffer (50 mM Tris, pH 7.4, 100 mM NaCl, 1 mM EDTA), 3% human serum, and half the final concentration of acceptor particles was prepared, and 100 μL of the assay cocktail was added to each well of the plate. Test compounds in DMSO were added in a volume of 3 μL. The plate was mixed on a plate shaker and then incubated at 25° C. for 1 hour. A second assay cocktail containing donor particles, the remaining acceptor particles and 1×CETP buffer was prepared. 47 μL of the second assay cocktail was added to the reaction wells to start the assay. Assays were performed in a final volume of 150 μL. CE transfer reactions were performed as follows: final concentrations of materials were: 2.5 ng/μL CE donor particles, 7.5 ng/μL acceptor particles (each expressed by protein content), 1×CETP buffer, 14-30 nM recombinant human CETP (expressed in CHO cells and partially purified), and up to 2% DMSO when testing compounds; reactions were followed in a fluorescence plate reader (Molecular Devices Spectramax GeminiXS) set for a 45 minute kinetic run at 25° C. which read the samples every 45 sec at Ex=480 nm, Em=511 nm, with a cutoff filter at 495 nm, photomultiplier tube setting of medium, calibration on, and 6 reads/well. TG transfer reactions were performed as described above with the exception that 2.5 ng/uL TG donor particles were used. TG transfer was measured at an excitation wavelength of 538 nm while reading emission at 568 nm every 45 sec for 45 min at 37° C. with a cutoff filter at 550 nm.
Data were evaluated by obtaining an initial rate, expressed in relative fluorescence units per second, for the pseudolinear portion of the curve, often 0-500 or 1000 sec. Comparison of the rates of samples with inhibitors to an uninhibited (DMSO only) positive control yielded a percent inhibition. A plot of percent inhibition vs. log of inhibitor concentration, fit to a Sigmoidal 4 parameter equation was used to calculate IC50.

Row | SMILES | IC50
1 | COc1ccccc1-c1ccc(N2CC(C)(CNC(=O)c3ccc(-c4nc5cc(C#N)cc(C(C)C)c5o4)cc3)OC2=O)nc1 (stereo not shown) [Example 53] | 0.018 to 0.1 µM
2 | CC(C)Oc1ccc(F)cc1-c1ccc(N2C[C@@H](CNC(=O)c3ccc(-c4nc5cc(C#N)cc(C(C)C)c5o4)cc3)OC2=O)nc1 [Example 30] | 0.018 to 0.1 µM
3 | CC(C)Oc1ccc(F)cc1-c1ccc(N2CC(C)(CNC(=O)c3ccc(-c4nc5cc(C#N)cc(C(C)C)c5o4)cc3)OC2=O)nc1 (stereo not shown) [Example 54] | 0.018 to 0.1 µM
4 | CC(C)Oc1cccc(F)c1-c1ccc(N2C[C@H](CNC(=O)c3ccc(-c4nc5cc(C#N)cc(C(C)C)c5o4)cc3)OC2=O)nc1 [Example 48] | 0.018 to 0.1 µM
5 | CC(C)c1cc(C#N)cc2nc(-c3ccc(C(=O)NCC4CN(c5ccc(-c6ccccc6OC(F)(F)F)cn5)C(=O)O4)cc3)oc12 (stereo not shown) [Example 2, 4-(5-Cyano-7-isopropyl-1,3-benzoxazol-2-yl)-N-[(2-oxo-3-{5-[2-(trifluoromethoxy)phenyl]pyridin-2-yl}-1,3-oxazolidin-5-yl)methyl]benzamide] | 0.018 to 0.1 µM

Next, values leading:

Row | IC50 | SMILES
6 | 0.018 to 0.1 µM | CC(C)COc1ccccc1-c1ccc(N2CC(CNC(=O)c3ccc(-c4nc5cc(C#N)cc(C(C)C)c5o4)cc3)OC2=O)nc1 (stereo not shown) [Example 7]
7 | 0.018 to 0.1 µM | CC(C)c1cc(C#N)cc2nc(-c3ccc(C(=O)NCC4(C)CN(c5ccc(-c6ccccc6OC(F)(F)F)cn5)C(=O)O4)cc3)oc12 (stereo not shown) [Example 51, 4-(5-Cyano-7-isopropyl-1,3-benzoxazol-2-yl)-N-[(5-methyl-2-oxo-3-{5-[2-(trifluoro-methoxy)phenyl]pyridin-2-yl}-1,3-oxazolidin-5-yl)methyl]benzamide]
8 | 0.018 to 0.1 µM | COc1ccccc1-c1ccc(N2C[C@H](CNC(=O)c3ccc(-c4nc5cc(C#N)cc(C(C)C)c5o4)cc3)OC2=O)nc1 [Example 43]
9 | 0.018 to 0.1 µM | CC(C)c1cc(C#N)cc2nc(-c3ccc(C(=O)NCC4(C)CN(c5ccc(-c6ccccc6)cn5)C(=O)O4)cc3)oc12 (stereo not shown) [Example 55]
10 | 0.018 to 0.1 µM | COc1cc(F)c(C(C)C)cc1-c1ccc(N2C[C@@H](CNC(=O)c3ccc(-c4nc5cc(C#N)cc(C(C)C)c5o4)cc3)OC2=O)nc1 [Example 31]
